The numbers were not newly measured in US5869086A, “Systems for the controlled release of pilocarpine” (LTS Lohmann Therapie-Systeme GmbH, priority 1993, dated 1999), which cites them from elsewhere.

In series [1] the test system is heart.
The subject of series [2] is postganglionic, parasympathetic acetylcholine receptors. The settings on record: textbook.
For series [3], the system named is patients suffering from glaucoma (eye). Particulars: applied to the eye.
Series [4] concerns adults. Particulars: systemic, single maximum dose for adults; German Federal Board of Health.

Molecules are shown by their SMILES.

For `CC[C@@H]1C(=O)OC[C@@H]1Cc1cncn1C` [pilocarpine, (3S, 4R)-3-ethyl-4,5-dihydro-4-(1-methyl-1H-imidazole-5-ylmethyl)-2(3H)-furanone], the “hazard of high systemic doses” value in series [1] (high doses, effect on the heart) was “hazardous to patients' life and health”. Besides, in series [1] (textbook, general application), the “impairment of the heart function compared with carbachol” value is on record as “impairment of the heart function is more distinct”. The “action on acetylcholine receptors” value in series [2] is “specifically stimulates the postganglionic, parasympathetic acetylcholine receptors”. In addition, the “duration of one application” value in series [3] is 4 to 6 h. Also, the “dosage at which risks are likely to arise” value in series [4] is on record as “below 20 mg”.
